Values joined by “and” are separate entries in the source; they are usually repeats but may differ in a detail not shown here. Equal entries are not always repeated.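 1) Cells in 96-well plates. 2) Compound, 48 h, 5 concentrations. 3) Linear interpolation between surrounding doses. 4) Unreached endpoint = highest concentration. At the GI50, growth is halved. The concentration for full growth arrest is given as TGI.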 Where only a bound is given, the exact number is not on record here.

Common to all, as to experiment: NCI tumour cell line growth inhibition, 48 h
Assay [1] concerns SK-OV-3 ovarian.
In assay [2] the test system is MOLT-4 leukemia.
Assay [3] deals with DU-145 prostate.
The subject of assay [4] is COLO 205 colon.
Assay [5] relates to TK-10 renal.
In assay [6] the test system is NCI-H460 lung.
In assay [7] the test system is NCI-H23 lung.
Assay [8] has as its system SNB-75 CNS.
Assay [9] concerns M14 melanoma.
Assay [10] concerns HL-60(TB) leukemia.

For `Nc1c(-c2ccc(Cl)c(Cl)c2)c2ccc([N+](=O)[O-])cc2c(=O)n1-c1nc2ccccc2s1`, the TGI in assay [1] was 28.8 µM; in assay [2], above 100 µM; in [3], above 100 µM; in [4], 2.89 µM; in [5] it was 30.5 µM; in assay [6], above 100 µM. For the same compound, the TGI was 3.13 µM in [7], 8.23 µM in [8] and above 36.1 µM in [9].
For the compound `Cc1ccc(-c2cc(-c3ccco3)c(C#N)c(=S)n2C2OC(CO)C(O)C(O)C2O)cc1` (centres undefined), the GI50 in assay [1] is 2.51 µM and 21.9 µM; in [2] it was 7.35 µM and 18.7 µM; in assay [3], 30.3 µM; in [7], 19.7 µM and 51.9 µM. Moreover, the TGI was 10.7 µM and > 100 µM in [1]; above 100 µM in assay [2]; above 100 µM in assay [3]; above 100 µM in assay [4]; above 100 µM in assay [5]; above 100 µM in [6]. Further, the TGI is 90.4 µM and > 100 µM in [7]; above 100 µM in assay [8]; 68.2 µM and 75.7 µM in assay [9].
Take `C=C1CCN2CC[C@@H](OC(=O)/C(C)=C\C)[C@@H]12`: the TGI in assay [1], in assay [2], in [3], in assay [4], in [5] and in assay [6] was above 100 µM each time. Moreover, the TGI in assay [7], in assay [8] and in [9] was above 100 µM throughout.
For `COc1ccc(-n2c(C)nc3ccc(NC(=S)Nc4ccccc4)cc3c2=O)cc1`, the TGI in assay [2] was 99.8 µM; in [3], above 100 µM; in [4], above 100 µM; in [5], above 100 µM; in [6], above 100 µM; in assay [7], above 100 µM. Besides, the TGI in assay [8] and in assay [10] was above 100 µM throughout.
As for `CC(C)=CCC[C@@H](C)c1c(O)c(O)c(C)c2nccnc12`, the TGI was above 100 µM in assay [1]; above 53.1 µM in assay [2]; above 100 µM in [3]; above 80.7 µM in assay [4]; above 100 µM in assay [5]; above 100 µM in assay [6]. In addition, the TGI in assay [7] is above 79.1 µM; in assay [8], above 100 µM; in assay [9], above 100 µM.
Turning to `N#CC(Cc1ccccc1)N(CCC1=CCCCC1)C(c1ccccc1)c1ccccc1` (centres undefined), the TGI in assay [1], in assay [2], in [3], in assay [4], in [5] and in assay [6] was above 100 µM throughout. The TGI in [7], in assay [8] and in [9] was above 100 µM each time.
For `CCOP(=O)(OCC)C(F)(F)c1ccc(CC(NC(=O)OC(C)(C)C)C(=O)O)cc1` (centres undefined), the TGI in assay [1], in [2], in assay [3], in [4], in assay [5] and in assay [6] was above 10 µM each time. The TGI in [7], in assay [8] and in assay [9] was above 10 µM throughout.
With `COc1ccc(N=NC(=Nc2ccccc2)c2ccc(N(CCC#N)CCC#N)cc2)cc1`, the TGI in [1] is above 100 µM; in [2] it was above 100 µM; in assay [3], above 100 µM; in [4], 28.6 µM; in assay [5], above 100 µM; in assay [6], above 100 µM. Besides, the TGI in assay [7], in assay [8] and in [9] was above 100 µM throughout.
Take `CCN(CC)CCNC(=O)c1cc2cc(NC(=O)c3cc4cc([N+](=O)[O-])ccc4[nH]3)ccc2[nH]1`: the TGI in [1] is 71.4 µM; in assay [2] it was above 100 µM; in [3], 31.8 µM; in assay [4], 28.9 µM; in [5], 48.6 µM; in assay [6] it was above 100 µM. Besides, the TGI in [7], in [8] and in assay [9] was above 100 µM throughout.
Consider `O=C(C1OC1c1ccc(Br)cc1O)C12CC3CC(CC(C3)C1)C2` (centres undefined), for which the TGI in assay [2] is 66.7 µM; in assay [3] it was above 100 µM; in assay [5], above 100 µM; in [6] it was 85.2 µM; in assay [7] it was 81.3 µM; in assay [8], 58.1 µM. Moreover, the TGI was 40.9 µM in assay [10] and 38.6 µM in assay [9].
As to `Nn1c(Nc2ccc(S(=O)(=O)Nc3ncccn3)cc2)nnc(/C=C/c2c(O)ccc3ccccc23)c1=O`, the TGI in assay [2] is above 100 µM; in assay [3], above 100 µM; in assay [5], 75.8 µM; in assay [6], 69.2 µM; in assay [7], 45.6 µM; in assay [8], 66.5 µM. Besides, the TGI in [10] stood at 45.2 µM; in [9] it was 78.2 µM.
With `C#CCn1c(=O)c2ccccc2n(CC#C)c1=O`, the TGI in assay [1], in [2], in assay [3], in [4], in [5] and in assay [6] was above 10 µM each time. Also, the TGI in assay [7], in assay [8] and in assay [9] was above 10 µM throughout.

The values above are taken from PubChem BioAssay (NCI).
